We go through 1 molecule from patent US10060933B2, “Methods for diagnosis and treatment of amyotrophic lateral sclerosis based on an increased level of interaction between TDP-43 polypeptide and NF-KB P65 polypeptide” (UNIVERSITE LAVAL, priority 2011, dated 2018).

The structures appear in SMILES notation. “Also recorded” adds a separate entry of the source.

Assay [1] concerns GFAP. The experiment in a line: GFAP immunofluorescence of spinal cord sections. The assay is classed as in vivo, mouse. To be noted: GFAP-luc/TDP-43^Wt mice, treated vs untreated. On the procedure: (§1) To study the in vivo effect of NF-κB inhibition on disease progression, we injected TDP-43^wt; GFAP-luc double transgenic mice with 3 mg/kg body weight of WA twice a week for 10-weeks starting at 30-weeks. […] We used TDP-43^wt; GFAP-luc double transgenic mice because the reporter luciferase (luc) allowed the longitudinal and non-invasive biophotonic imaging with CCD camera of the GFAP promoter activity which is a target of activated NF-κB. To analyse the spatial and temporal dynamics of astrocytes activation/GFAP induction in TDP-43 mouse model, we performed series of live imaging experiments. […] The downregulation of GFAP promoter activity was further confirmed in these mice using GFAP immunofluorescence of spinal cord sections of TDP-43^Wt mice (both drug-treated and untreated) (FIG. 8F). […] Down-regulation of GFAP along with reduction in active p65 levels in withaferin treated mice prompted us to analyse behavioural changes in these mice. […] The withaferin treated mice also had 40% reduction in the number of partially denervated neuromuscular junction (NMJ) (FIGS. 8E&G).
(§2) 4% Paraformaldehyde (PFA) fixed spinal cord and brain sections of mice were sectioned and fixed on slides. For immunohistochemistry, tissues were treated with hydrogen-peroxide solution before permeabilisation. […]

Assay [2] relates to TDP-43^G348C mice. The experiment in a line: Accelerating rotarod in TDP-43^G348C mice. The assay is classed as in vivo, mouse. Particulars: WA-treated vs untreated TDP-43^G348C mice. On the procedure: Accelerating rotarod analysis was performed in TDP-43^G348C mice at various ages from 8 wk to 52 wk, and time taken by the mice to fall from the rotarod is used as rotarod performance. WA treatment period is marked as drug treatment period. Error bars represent mean±SEM (n=10 each group) (FIG. 25).
Accelerating rotarod was performed on mice at 4 rpm speed with 0.25 rpm/sec acceleration as described elsewhere^30. Mice were subjected to three trials per session and every two weeks.
(Falling from the rotarod earlier than controls is read as motor impairment.)

Assay [3] relates to NF-κB (phospho-p65^Ser536). The experiment in a line: Western blot of phospho-p65^Ser536 in challenged neuronal cells. Format: cell-based, mouse. To be noted: glutamate and conditioned media challenged neuronal cells; WA. An excerpt: […] is known to modulate p53-p38MAPK dependent apoptosis in neurons, when treated with DNA damage inducing chemicals like camptothecin^34, glutamate excitotoxicity^35 or general bystander mediated killing of neurons by microglia^14. To assess the potential contribution of NF-κB to the death of TDP-43 overexpressing neurons exposed to toxic injury, we prepared cultures of primary cortical neurons and microglia from transgenic mice overexpressing TDP-43^wt or TDP-43 mutants. […] The LDH cytotoxicity was determined 24 hrs later (FIG. 14A). […] We then incubated cortical neurons with the conditioned media from primary microglial culture, which were challenged with LPS at a concentration of 50 ng/ml of media. […] As WA might exert multiple pharmacological actions, we tested a more specific molecular approach for inhibiting NF-κB. Since, activation of NF-κB requires its dissociation from the inhibitory molecule, IκB, we expressed a stable mutant super-repressive form of IκB-α (Ser 32/Ser36-to-alanine mutant; IκB^SR) and evaluated its effects on neuronal death. Cultured cortical neurons from TDP-43 transgenic and non-transgenic mice were transfected with a plasmid construct, expressing IκB^SR, and exposed to either 10 μM glutamate for 30 min or incubated in conditioned media from LPS-stimulated microglia of same genotype. […]
(In general: In western blotting, separated proteins are transferred to a membrane and probed.)

For assay [4], the system named is peripherin. The experiment in a line: Peripherin immunofluorescence and immunoblot of spinal cord. Format: in vivo, mouse. Particulars: TDP-43^Wt mice, treated vs untreated. On the procedure: as §1
Snap frozen spinal cords of mice were harvested with lysis buffer containing 25 mM HEPES-NaOH (pH 7.9), 150 mM NaCl, 1.5 mM MgCl2, 0.2 mM EDTA, 0.5% Triton-X-100, 1 mM dithiothreitol and protease inhibitor cocktail. Protein samples were estimated using Bradford method. The lysate was incubated with 50 μl of Dynabeads (Protein-G beads, Invitrogen), anti-TDP-43 polyclonal (ProteinTech, Chicago, Ill., USA) or anti-peripherin polyclonal antibody (AB1530, Chemicon, Billerica, Mass., USA). After subsequent washing, the beads were incubated overnight at 4° C. with […] of tissue lysate. Antibody-bound complexes were eluted by boiling in Laemmli sample buffer. Supernatants were resolved by 10% SDS-PAGE and transferred on nitrocellulose membrane (Biorad, Hercules, Calif., USA). The membrane was incubated with anti-ubiquitin antibody (1:1000, Abcam, Cambridge, Mass., USA). For other western blot assays, blots were incubated with primary antibodies against human monoclonal TARDBP antibody (1:1000, Abnova, clone E2-D3), peripherin polyclonal (1:1000, Chemcion—AB1530), peripherin monoclonal (1:500, Chemicon, AB1527), Clone NR4 for NF-L (1:1000, Sigma), Clone NN18 for NF-M (1:1000, Millipore) and Clone N52 for NF-H (1:1000, Millipore). Immunoreactive proteins were then visualized by chemiluminescence (Perkin and Elmer, Santa Clara, Calif., USA) as described previously (Dequen et al., 2008). Actin (1:10000, Chemicon) is used as a loading control.
as §2

As to `CC1=C(CO)C(=O)O[C@@H]([C@@H](C)[C@H]2CC[C@H]3[C@@H]4C[C@H]5O[C@]56[C@@H](O)C=CC(=O)[C@]6(C)[C@H]4CC[C@]23C)C1` [Withaferin A], the “GFAP activation (GFAP immunofluorescence of spinal cord sections)” value in assay [1] is given as “downregulation; also recorded: significantly low GFAP activation”. In addition, the “motor performance (accelerating rotarod, time to fall)” value in assay [2] is recorded as “significantly better motor performance”. Also, the “levels of phospho-p65^Ser536 (inhibition of NF-κB)” value in assay [3] is “reduced levels”. Besides, the “peripherin in spinal cord (immunofluorescence, polyclonal antibody)” value is given as “reduced levels of peripherin” in assay [4] (listed as Withaferin) and “reduction of peripherin aggregates” in assay [4] (listed as withaferin). Moreover, the results for the “peripherin levels in spinal cord (western blot / immunoblot, monoclonal antibody)” value in assay [4] (listed as Withaferin) and in assay [4] (listed as withaferin) were “reduced levels of peripherin” and “reduced”, respectively.
